According to patent publication US20110280940A1, “Di-Vanilloyl And Tri-Vanilloyl Derivatives For Use In Anti-Cancer Therapy” (priority 2008, published 2011):
Where two headings read alike, the source gives them in different places.

Key:
VM21 melanoma cells = assay: MTT colorimetric assay, overall cell growth, VM21; format: cell-based, human; settings: Homo sapiens, read-out: In Vitro IC50 Growth Inhibitory Values, VM21
Summary of the method: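 Growth is measured as remaining living cells relative to untreated controls after 72 h at 37 °C with compound at 10^-8 to 10^-4 M. Readout is MTT formazan absorbance at 570 nm.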

WEE1 kinase = target: T1, WEE1 kinase (Homo sapiens, UniProt P30291); assay: Radiometric protein kinase assay (33 PanQinase), WEE1; format: biochemical; settings: for IC50: dose-response 0-100 μM, n=3, read-out: IC50: Concentration of drug needed in order to inhibit kinase activity by 50%, WEE1; for inhibition at 57 µM: read-out: inhibition of WEE1 activity
T1 construct: made in house
Method: A radiometric protein kinase assay (33 PanQinase®Activity Assay) was used for measuring the kinase activity of 250 protein kinases. All kinase assays were performed in 96-well flashPlates™ from Perkin Elmer (Boston, Mass., USA) in a 50 μl reaction volume. The reaction cocktail was pipetted in 4 steps in the following order: • 10 μl of non-radioactive ATP solution (in H2O) • 25 μl of assay buffer/[γ-33P]-ATP mixture • 5 μl of test sample in 10% DMSO • 10 μl of enzyme/substrate mixture
The assay for all enzymes contained 60 mM HEPES-NaOH, pH 7.5, 3 mM MgCl2, 3 mM MnCl2, 3 μM Na-orthovanadate, 1.2 mM DTT, 50 μg/ml PEG20000, 1 μM ATP/[γ-33P]-ATP (approx. […] per well), protein kinase, and substrate. All PKC assays (except the PKC-mu and the PKC-nu assay) additionally contained 1 mM CaCl2, 4 mM EDTA, 5 μg/ml Phosphatidylserine and 1 μg/ml 1,2-Dioleyl-glycerol. The MYLK2, CAMK1D, CAMK2A, CAMK2B, CAMK2D, CAMK4, CAMKK2, DAPK2 and EEF2K assays additionally contained 1 μg/ml Calmodulin and 0.5 mM CaCl2. The PRKG1 and PRKG2 assays additionally contained 1 μM cGMP.
The protein kinases were expressed either in Sf9 insect cells or in E. coli as recombinant GST-fusion proteins or as His-tagged proteins. All kinases were produced from human cDNAs. Kinases were purified by affinity chromatography using either GSH-agarose (Sigma) or Ni-NTH-agarose (Qiagen). The purity of the protein kinases was examined by SDS-PAGE/coomassie staining. The identity of the protein kinases was checked by mass spectroscopy.
The reaction cocktails were incubated at 30° C. for 60 minutes. The reaction was stopped with 50 μl of 2% (v/v) H3PO4, plates were aspirated and washed two times with 200 μl 0.9% (w/v) NaCl. All assays were performed with a BeckmanCoulter Biomek 2000/SL robotic system.
Incorporation of ^33Pi (counting of “cpm”) was determined with a microplate scintillation counter (Microbeta, Wallac).
For each kinase, the median value of the cpm of three wells with complete reaction cocktails, but without kinase, was defined as “low control” […]. This value reflects unspecific binding of radioactivity to the plate in the absence of protein kinase but in the presence of the substrate. Additionally, for each kinase the median value of the cpm of three other wells with the complete reaction cocktail, but without any compound, was taken as the “high control”, i.e. full activity in the absence of any inhibitor […]. The difference between high and low control of was taken as 100% activity for each kinase. As part of the data evaluation the low control value of each kinase was subtracted from the high control value as well as from their corresponding “compound values”. The residual activity (in %) for each compound well was calculated by using the following formula: Res. Activity (%)=100×[(cpm of compound−low control)/(high control−low control)]

T1 sequence (P30291 whole entry): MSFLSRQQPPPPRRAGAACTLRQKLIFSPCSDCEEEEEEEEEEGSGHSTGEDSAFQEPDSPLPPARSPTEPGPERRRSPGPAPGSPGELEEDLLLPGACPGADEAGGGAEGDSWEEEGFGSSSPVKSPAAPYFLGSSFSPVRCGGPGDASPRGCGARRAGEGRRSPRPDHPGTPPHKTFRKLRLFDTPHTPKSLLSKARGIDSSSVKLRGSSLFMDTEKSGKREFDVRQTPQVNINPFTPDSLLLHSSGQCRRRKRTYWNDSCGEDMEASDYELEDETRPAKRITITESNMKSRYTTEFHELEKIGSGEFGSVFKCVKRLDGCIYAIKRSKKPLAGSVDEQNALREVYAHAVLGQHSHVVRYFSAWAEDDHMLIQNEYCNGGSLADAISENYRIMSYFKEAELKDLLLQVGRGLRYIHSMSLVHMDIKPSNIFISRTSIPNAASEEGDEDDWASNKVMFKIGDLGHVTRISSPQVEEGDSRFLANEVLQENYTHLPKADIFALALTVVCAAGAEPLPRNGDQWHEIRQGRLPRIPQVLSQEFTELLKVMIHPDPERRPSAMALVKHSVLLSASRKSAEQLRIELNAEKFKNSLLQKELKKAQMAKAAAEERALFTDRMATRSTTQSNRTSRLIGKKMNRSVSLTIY

Structure (SMILES) | IC50 (VM21 melanoma cells; MTT, 72 hours of incubation) | IC50 (WEE1 kinase) | IC50 (VM21 melanoma cells; 72 h) | inhibition at 57 µM (WEE1 kinase)
COc1cc(C(=O)OCCCCCCOC(=O)c2ccc(O)c(OC)c2)ccc1O [DLT11, Hexane-1,6-diyl bis-(4-hydroxy-3-methoxybenzoate)] | 71 µM |  |  | 
COc1cc(C(=O)OCCOC(=O)c2ccc(O)c(OC)c2)ccc1O [DLT1, Ethane-1,2-diyl bis-(4-hydroxy-3-methoxybenzoate)] | 55 µM |  |  | 
COc1cc(C(=O)O)ccc1O [vanillic acid, reference compound] | > 1000 µM | > 100 µM |  | 
COc1cc(C(=O)OCc2cc(COC(=O)c3ccc(O)c(OC)c3)cc(COC(=O)c3ccc(O)c(OC)c3)c2)ccc1O [DLT95, [3,5-bis[(4-hydroxy-3-methoxy-benzoyl)oxymethyl]phenyl]methyl 4-hydroxy-3-methoxy-benzoate] |  | > 100 µM |  | 
O=C(OCc1cc(COC(=O)c2ccc(O)c(Cl)c2)cc(COC(=O)c2ccc(O)c(Cl)c2)c1)c1ccc(O)c(Cl)c1 [DLT95-Cl, [3,5-bis[(4-hydroxy-3-chloro-benzoyl)oxymethyl]phenyl]methyl 4-hydroxy-3-chloro-benzoate] |  | 3.74 µM | 35 µM | ≥ 50%
O=C(OCc1cc(COC(=O)c2ccc(O)c(F)c2)cc(COC(=O)c2ccc(O)c(F)c2)c1)c1ccc(O)c(F)c1 [DLT95-F, [3,5-bis[(4-hydroxy-3-fluoro-benzoyl)oxymethyl]phenyl]methyl 4-hydroxy-3-fluoro-benzoate] |  | 7.12 µM | 65 µM | ≥ 50%
